Test [1] concerns Marburg strain. Briefly: microbe, parasite or virus in culture. Type of test: cell-based, Butyribacterium methylotrophicum.
Test [2] deals with Clostridium pasteurianum. Briefly: microbe, parasite or virus in culture. Type of test: cell-based.
Setting [3] is: [Butyribacterium] methylotrophicum, 192 h, read-out: % Inhibition of growth, Marburg strain.
The mark [4] stands for this setting: Clostridium pasteurianum, 1 h, read-out: % Inhibition of growth, Clostridium pasteurianum.

The inhibition is the percentage by which the read-out fell short of the control.

Where two headings read alike, the source gives them in different places.

Take `CC1(C)S[C@@H]2[C@H](NC(=O)Cc3ccccc3)C(=O)N2[C@H]1C(=O)O` [Penicillin]: the inhibition at 100 µg/mL in test [1] (setting [3]) and in test [2] (setting [4]) was 100% throughout.
Take `[N-]=[N+]=[N-]` [Sodium azide]: in test [1], the “sensitivity of the Marburg strain (B. methylotrophicum) to antibiotics and inhibitors, in words” value was “noticeably more tolerant”. Moreover, the results for the inhibition at 50 µg/mL in test [1] (setting [3]) and in test [2] (setting [4]) were 0% and 100%, respectively. The figures for the inhibition at 250 µg/mL in test [1] (setting [3]) and in test [2] (setting [4]) were 0% and 93%, respectively.
Turning to `O=O` [Oxygen], in test [1], the “% Inhibition of growth, Marburg strain” value turned out to be 100%; the “sensitivity of the Marburg strain (B. methylotrophicum) to antibiotics and inhibitors, in words” value is “effective inhibitor of growth”. Further, in test [2], the “% Inhibition of growth, Clostridium pasteurianum” value turned out to be 100%.
As to `[Cl-].[Na+]` [Sodium chloride], the “sensitivity of the Marburg strain (B. methylotrophicum) to antibiotics and inhibitors, in words” value in test [1] is “noticeably more tolerant”. Besides, in test [1] (2%), the “% Inhibition of growth, Marburg strain” value came out at 0%. Besides, the “% Inhibition of growth, Clostridium pasteurianum” value in test [2] (2%) is recorded as 73%.
Turning to `CN(C)C1C(=O)C(C(N)=O)=C(O)C2(O)C(=O)C3=C(O)c4c(O)cccc4C(C)(O)C3CC12` (stereo not shown) [Tetracycline], the inhibition at 100 µg/mL in test [1] (setting [3]) and in test [2] (setting [4]) was 100% throughout.
As to `O=C(N[C@H](CO)[C@H](O)c1ccc([N+](=O)[O-])cc1)C(Cl)Cl` [Chloramphenicol], the inhibition at 100 µg/mL in test [1] (setting [3]) and in test [2] (setting [4]) was 100% throughout.
For `[H]/N=C(/N)N[C@H]1[C@H](O)[C@@H](O)[C@H](O[C@@H]2O[C@@H](C)[C@](O)(C=O)[C@H]2O[C@@H]2O[C@@H](CO)[C@H](O)[C@@H](O)[C@@H]2NC)[C@@H](N/C(N)=N\[H])[C@@H]1O` [Streptomycin], the inhibition at 100 µg/mL in test [1] (setting [3]) was determined as 80%; in test [2] (setting [4]) it was 100%.

These data come from US4425432A (priority 1981, dated 1984).
